Data on one sequence can be found in patent US10906977B2, “Enhancing the therapeutic activity of immune checkpoint inhibitor” (Maine Medical Center Research Institute, priority 2016, dated 2021).

The subject of test [1] is chick chorioallantoic membrane (CAM). In words: Chick CAM inflammation induced by soluble RGD collagen peptides. It counts as in vivo. To be noted: FIG. 5D. The protocol: (§1) The chick chorioallantoic membrane (CAM) assays were carried out with some modifications (19). For all experiments CAMs of 10-day-old chick embryos obtained from Charles River (North Franklin, Conn.) were separated from the shell membrane. Filter discs either non-treated (inflammation assays) pretreated (angiogenesis assays) with cortisone acetate (3.0 mg/ml) containing RPMI only or FGF-2 (40 ng). CAMs were either non-treated or treated topically with Mab XL313, XL166 or a non-specific control antibody (10 μg/embryo every 24 h for three consecutive treatments). […] At the end of the incubation period the embryos were sacrificed and the CAM tissues were analyzed. Angiogenesis was quantified by counting the number of angiogenic branching blood vessels within the area of the filter disc. The angiogenic index was determined by subtracting the mean number of blood vessel branch points from untreated CAMs from each experimental condition. Eight to twelve embryos were used per condition and experiments were repeated at least three times.

Test [2] concerns PD-L1. In words: PD-L1 in control and β3 integrin knock down T-cells stimulated with peptide (western blot). To be noted: FIG. 33. It is filed as cell-based, human. Here is the method:
In order to confirm the functional role of integrin αvβ3 receptor in regulating the levels of the immune suppressive molecule PD-L1 by the XL313 cryptic collagen peptide P2, the expression of PD-L1 was examined in β3 integrin knock down and control transfected T-cells. Whole cell lysates from control transfected (Cont T-cells) and β3 integrin shRNA transfected T-cells (β3/KD) that were stimulated with control peptide (PC) or the XL313 cryptic collagen peptide (P2) were analyzed by western blot for expression of PD-L1.
(In general: A western blot detects proteins with antibodies after separation by electrophoresis.)

Test [3] relates to P38MAPK. In words: Phosphorylated P38MAPK in HRMVEC attached to collagen peptides (Western blot). It counts as cell-based, human. To be noted: cells attached to peptide; FIG. 6E. Here is the method: Endothelial cells (HUVECs or HRMVECs) were incubated in serum free media with 1 mM MgCl2, 0.2 mM MnCl2 in the presence of a Src inhibitor, PP2, (10 μM) a P38MAPK inhibitor, SB202190 (10 μM) or vehicle only (DMSO) for 10 min at 37° C. Treated cells were then seeded on to immobilized P-1 and P-2 and lysates were collected at 15 min.
Whole cell and CAM tissue lysates were collected in RIPA buffer supplemented with 1× protease inhibitor and 1× phosphatase inhibitor and were run on polyacrylamide gels using denaturing conditions. Prior to loading the gels, 6× sample buffer was added to each of the lysates (final concentration 1×) and boiled for five minutes. Twenty to 50 μg of total protein were loaded into each lane. […] Gels were run at 60 volts (v) until the dye front passed through the stacking gel, and then the voltage was increased to 100V for the remainder of the separation. Precision Plus protein standards (Bio-Rad) were used to visualize migration. Protein was transferred to nitrocellulose membranes using a wet tank system and blocked for 1 h using 10% non-fat dried milk in tris-buffered saline with 0.01% Tween-20 (TBS-T). […] Membranes were washed 3 times in TBS-T for five minutes. Blots were then incubated with HRP conjugated secondary antibodies (1:15000) in 1% non-fat milk in TBS-T for 1 h. […] Western blot bands were quantified using Image J software based on pixel intensity.

The subject of test [4] is Src. In words: Src phosphorylation in endothelial cells attached to collagen peptides (Western blot). It is filed as cell-based, human. To be noted: FIG. 7D. Here is the method:
(§2) Whole cell and CAM tissue lysates were collected in RIPA buffer supplemented with 1× protease inhibitor and 1× phosphatase inhibitor and were run on polyacrylamide gels using denaturing conditions. Prior to loading the gels, 6× sample buffer was added to each of the lysates (final concentration 1×) and boiled for five minutes. Twenty to 50 μg of total protein were loaded into each lane. […] Gels were run at 60 volts (v) until the dye front passed through the stacking gel, and then the voltage was increased to 100V for the remainder of the separation. Precision Plus protein standards (Bio-Rad) were used to visualize migration. Protein was transferred to nitrocellulose membranes using a wet tank system and blocked for 1 h using 10% non-fat dried milk in tris-buffered saline with 0.01% Tween-20 (TBS-T). […] Membranes were washed 3 times in TBS-T for five minutes. Blots were then incubated with HRP conjugated secondary antibodies (1:15000) in 1% non-fat milk in TBS-T for 1 h. Membranes were washed a second time as indicated above and exposed to chemiluminecent substrate for three minutes prior to exposure to autoradiography film in a dark room. Western blot bands were quantified using Image J software based on pixel intensity.

The subject of test [5] is endothelial cells transduced with YAP specific or non-specific shRNAs. Description: Growth of shRNA transduced endothelial cells with soluble RGD peptides. It counts as cell-based, human. The protocol:
(§3) HUVECs (WT, shYAP1 or control transfected) or HRMVECs were plated at 2,000 cells per well with complete EGM-2 media containing 2.0% FBS in the absence or presence of P-1, P-2 or P-C (100 ng/ml) and allowed to grow for 24 hours. Cell growth was monitored using a BrdU or MMT assay kits according to manufacturer's instructions. All assays were completed at least three times in triplicate wells.
Raw cells were transfected with 1 μg of HuSH shRNA plasmids for collagen type I, alpha 2 using Amaxa cell line nucleofector kit V (program #T024). Constructs expressing 21-nucleotide short hairpin RNAs (shRNA) targeting human YAP (shYAP) or non-targeting control (shNT, Sigma-Aldrich, SHC002) were used. Humantargeting shYAP1 lentiviral shRNA was obtained from the Thermo Scientific RNAi consortium (TRCN0000107625). Constructs were packaged into lentivirus, pseudotyped with the vesicular stomatitis virus glycoprotein. Transduction was performed by incubating cells with lentivirus, and stably transduced cells were subsequently used for studies. All cell lines were verified by morphology and mouse and human YAP-specific PCR. […] Endothelial cells were certified mycoplasma-negative by PCR (Lonza), and primary cell cultures were used within the indicated passage numbers. Cells were transduced and selected using puromycin.

In test [6] the test system is T-cell (Jurkat). Description: T-cell migration on denatured collagen type-IV (transwell). To be noted: P2 1.0 ug/ml; FIG. 34. It is filed as cell-based, human. The protocol:
Membranes of transwell migration chambers were coated with denatured collagen type-IV to mimic the altered basement membrane in tumor vessels. Left). T-cell (Jurkat) migration in the presence or absence of the cryptic collagen peptide P2 (1.0 ug/ml) and/or Mab XL313 and non-specific control antibody (50 μg/ml). Right). T-cell (Jurkat) migration in the presence or absence of Raw macrophage concentrated conditioned medium (CM) and/or Mab XL313 and non-specific control antibody (50 μg/ml). Data bars represent mean cell migration+SE from triplicate wells.

Test [7] concerns chick chorioallantoic membrane (CAM). Description: Chick CAM angiogenesis induced by soluble RGD collagen peptides. It counts as in vivo. Here is the method: as §1
In test [8] the test system is HRMVEC. In words: Endothelial cell proliferation with soluble RGD peptides. It is filed as cell-based, human. To be noted: 100 ng/ml, 24 hours; FIG. 8D. The protocol: as §3
Test [9] concerns HUVEC. Described as above. It is filed as cell-based, human. To be noted: 100 ng/ml, 24 hours; FIG. 8C. The protocol: as §3
The subject of test [10] is YAP. Description: Nuclear YAP in endothelial cells attached to collagen peptides. It counts as cell-based, human. The protocol:
as §2

Test [11] concerns the target T1, integrin αvβ3 (Homo sapiens, UniProt P05106+P06756).
T1 construct: purchased R&D Systems (Minneapolis, Minn.)
In words: Solid phase ELISA, recombinant integrin αvβ3 binding to immobilized peptide P-2. To be noted: peptide immobilized 100 μg/ml; FIG. 30. The protocol:
The cryptic collagen peptide P-2 was immobilized (100 μg/ml) on microtiter wells and increasing concentrations of recombinant integrin αvβ3 was added and integrin binding was quantified. Data bars indicate mean integrin binding±standard deviation from triplicate wells.
The cryptic collagen peptide P-2 was immobilized (100 μg/ml) on microtiter wells and recombinant integrin αvβ3 was added and it was allowed to bind in the presence (50 μg/ml) or absence of Mab X1313 or control antibody (Mab XL166 directed to other collagen RGD peptides). Data bars indicate mean integrin binding±standard deviation from triplicate wells.
(ELISA stands for enzyme-linked immunosorbent assay.)

T1 sequence (P06756 31-992 limits assumed): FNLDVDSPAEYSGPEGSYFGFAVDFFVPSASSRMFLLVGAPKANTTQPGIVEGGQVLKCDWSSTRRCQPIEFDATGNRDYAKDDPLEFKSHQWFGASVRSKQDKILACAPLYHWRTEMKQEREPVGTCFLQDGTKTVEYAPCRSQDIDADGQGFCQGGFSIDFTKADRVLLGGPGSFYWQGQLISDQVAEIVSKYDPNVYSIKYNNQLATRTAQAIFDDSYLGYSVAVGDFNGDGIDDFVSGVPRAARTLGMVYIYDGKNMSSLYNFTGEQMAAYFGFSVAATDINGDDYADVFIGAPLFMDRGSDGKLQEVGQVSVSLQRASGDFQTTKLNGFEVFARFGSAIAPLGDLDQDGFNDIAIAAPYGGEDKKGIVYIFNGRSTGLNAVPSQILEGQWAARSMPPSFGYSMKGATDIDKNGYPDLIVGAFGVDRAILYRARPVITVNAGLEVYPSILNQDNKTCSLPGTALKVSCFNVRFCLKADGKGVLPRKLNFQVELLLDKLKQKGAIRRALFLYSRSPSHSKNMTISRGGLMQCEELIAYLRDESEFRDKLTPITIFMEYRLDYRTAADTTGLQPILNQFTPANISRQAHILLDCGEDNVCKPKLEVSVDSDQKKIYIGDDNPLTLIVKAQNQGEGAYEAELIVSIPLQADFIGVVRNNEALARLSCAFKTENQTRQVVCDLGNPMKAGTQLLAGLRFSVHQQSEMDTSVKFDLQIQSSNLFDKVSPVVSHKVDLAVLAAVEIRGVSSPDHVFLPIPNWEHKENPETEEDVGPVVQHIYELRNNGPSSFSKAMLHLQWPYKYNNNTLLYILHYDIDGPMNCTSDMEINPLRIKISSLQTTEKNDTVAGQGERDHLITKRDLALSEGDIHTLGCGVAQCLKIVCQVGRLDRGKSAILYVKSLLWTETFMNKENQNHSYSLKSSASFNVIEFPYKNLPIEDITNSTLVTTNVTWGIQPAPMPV
T1 sequence (P05106 27-718 limits assumed): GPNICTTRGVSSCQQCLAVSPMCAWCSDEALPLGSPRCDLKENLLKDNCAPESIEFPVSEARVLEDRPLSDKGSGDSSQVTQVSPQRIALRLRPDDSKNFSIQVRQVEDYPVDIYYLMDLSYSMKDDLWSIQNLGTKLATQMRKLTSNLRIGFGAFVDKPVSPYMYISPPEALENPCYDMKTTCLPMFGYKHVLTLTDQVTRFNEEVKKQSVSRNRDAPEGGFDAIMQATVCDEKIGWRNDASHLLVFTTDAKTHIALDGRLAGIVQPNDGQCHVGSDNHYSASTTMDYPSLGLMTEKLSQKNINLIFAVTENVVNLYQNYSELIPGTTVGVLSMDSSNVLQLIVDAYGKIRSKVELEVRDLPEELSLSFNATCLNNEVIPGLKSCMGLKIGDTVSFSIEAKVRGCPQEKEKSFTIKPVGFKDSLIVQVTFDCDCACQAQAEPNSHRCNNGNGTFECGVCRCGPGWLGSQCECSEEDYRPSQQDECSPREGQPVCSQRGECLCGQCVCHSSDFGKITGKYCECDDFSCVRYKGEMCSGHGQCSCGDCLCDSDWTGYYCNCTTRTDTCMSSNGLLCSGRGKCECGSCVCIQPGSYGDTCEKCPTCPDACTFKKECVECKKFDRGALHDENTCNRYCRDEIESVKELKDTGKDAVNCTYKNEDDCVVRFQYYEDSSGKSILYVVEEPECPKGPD

With CQGPRGDKGEC [Mab P-2], the “CAM inflammation following stimulation with peptide” value in test [1] is reported as “induced inflammation to nearly that of FGF-2 stimulation”. In addition, in [2], the “expression of PD-L1 in control transfected T-cells” value was “enhanced expression of PD-L1” and the “expression of PD-L1 in β3 integrin knock down cells” value was “little ability to enhance the expression of PD-L1”. Further, in test [3], the “phosphorylation of P38MAPK in HRMVEC, as compared to P-1” value is recorded as “enhanced phosphorylation of P38MAPK”. In test [4], the “enhancement of Src phosphorylation as compared to P-1” value is recorded as about 2 fold. Besides, the “growth of endothelial cells in which YAP was knocked down” value in test [5] (YAP specific shRNA, FIG. 8H) is on record as “failed to induce growth”. Further, the “growth of control transduced endothelial cells with soluble peptide” value in test [5] (non-specific shRNA, FIG. 8G) is recorded as “enhanced growth”. Moreover, the “effect on T-cell migration” value in [6] is reported as “inhibitory effects”. In test [7] (FIG. 5B), the “dose dependent induction of CAM angiogenesis” value was “dose dependently enhanced angiogenesis” and the “dose of maximum induction of angiogenesis” value came out at 100 ng/CAM. Besides, the “induction of CAM angiogenesis as compared to no treatment” value in [7] (soluble peptide, FIG. 5C) was “induced angiogenesis”. In addition, in [8], the “HRMVEC growth with soluble peptide” value was “enhanced endothelial cell growth”. Besides, the “HUVEC growth with soluble peptide” value in test [9] was “enhanced endothelial cell growth”. The “nuclear localized YAP (staining) as compared to P-1” value in test [10] (by 15 minutes, FIG. 8A) is “enhanced level of nuclear localized YAP”. The “increase of nuclear YAP as compared to P-1 (Western blot)” value in [10] (cells attached to peptide, FIG. 8B) is “approximately 2 fold”. In addition, the “binding of integrin receptor αvβ3 to peptide” value in test [11] is given as “dose-dependently binds”.
